Assay results taken from ChEMBL document CHEMBL1138436, “Biological activity and chemistry of taxoids from the Japanese yew, Taxus cuspidata” (J Nat Prod, 2004).
Values after ≈ are worked out from the molar mass of the structure shown.

Legend:
[1] = test system: SF-539; assay: Growth inhibition of human SF539 cells; type: functional
[2] = test system: SNB-78; assay: Growth inhibition of human SNB78 cells; type: functional
[3] = test system: NCI-H23; assay: Growth inhibition of human NCI-H23 cells; type: functional
[4] = test system: OVCAR-3; assay: Growth inhibition of human OVCAR-3 cells; type: functional
[5] = test system: OVCAR-8; assay: Growth inhibition of human OVCAR8 cells; type: functional
[6] = Growth inhibition of human RXF631L cells; type: functional; conditions: for TGI: RXF 631
[7] = test system: ACHN; assay: Growth inhibition of human ACHN cells; type: functional; conditions: for CC50: read-out: LC50 (the source's name)
[8] = Growth inhibition of human MKN1 cells; type: functional
[9] = test system: MKN-28; assay: Growth inhibition of human MKN28 cells; type: functional
[10] = test system: MKN-45; assay: Growth inhibition of human MKN45 cells; type: functional
[11] = test system: KB; assay: Cytotoxicity against human KB cells; type: functional, cell-based
[12] = read-out: LC50 (the source's name)
[13] = read-out: pLC50 (the source's name) (converted)
[14] = RXF 631, read-out: LC50 (the source's name)
[15] = RXF 631, read-out: pGI50 (converted)
[16] = RXF 631, read-out: pLC50 (the source's name) (converted)
[17] = MKN-1, read-out: LC50 (the source's name)
[18] = MKN-1, read-out: pGI50 (converted)
[19] = MKN-1, read-out: pLC50 (the source's name) (converted)
[20] = MKN-1, read-out: pTGI (converted)

Q: For C=C1[C@@H](OC(=O)/C=C/c2ccccc2)C[C@H](OC(C)=O)[C@]2(C)[C@@H]1C[C@]1(C(C)(C)O)C[C@H](OC(C)=O)C(C)=C1[C@@H](OC(=O)c1ccccc1)[C@@H]2OC(C)=O [TAXUSPINE A], which GI50 ([1]; read-out: GI50) is on record?
A: 100 µM

Q: What about the CC50 [1, 12] of the same molecule?
A: > 100 µM

Q: What about the TGI ([1]; read-out: TGI) of the same molecule?
A: > 100 µM

Q: What about the GI50 ([1]; read-out: pGI50 (converted)) of the same molecule?
A: 100 µM

Q: What about the CC50 [1, 13] of the same molecule?
A: 100 µM

Q: And the TGI ([1]; read-out: pTGI (converted))?
A: 100 µM

Q: What about the GI50 ([2]; read-out: GI50) of the same molecule?
A: 3.2 µM

Q: And the CC50 [2, 12]?
A: > 100 µM

Q: And the TGI ([2]; read-out: TGI)?
A: > 100 µM

Q: And the GI50 ([2]; read-out: pGI50 (converted))?
A: 3.16 µM

Q: And the CC50 [2, 13]?
A: 100 µM

Q: What about the TGI ([2]; read-out: pTGI (converted)) of the same molecule?
A: 100 µM

Q: What about the GI50 ([3]; read-out: GI50) of the same molecule?
A: 100 µM

Q: And the CC50 [3, 12]?
A: > 100 µM

Q: What about the TGI ([3]; read-out: TGI) of the same molecule?
A: > 100 µM

Q: What about the GI50 ([3]; read-out: pGI50 (converted)) of the same molecule?
A: 100 µM

Q: What about the CC50 [3, 13] of the same molecule?
A: 100 µM

Q: And the GI50 ([4]; read-out: GI50)?
A: 5 µM

Q: What about the CC50 [4, 12] of the same molecule?
A: > 100 µM

Q: What about the TGI ([4]; read-out: TGI) of the same molecule?
A: > 100 µM

Q: What about the GI50 ([4]; read-out: pGI50 (converted)) of the same molecule?
A: 5.01 µM

Q: What about the CC50 [4, 13] of the same molecule?
A: 100 µM

Q: And the TGI ([4]; read-out: pTGI (converted))?
A: 100 µM

Q: What about the GI50 ([5]; read-out: GI50) of the same molecule?
A: 100 µM

Q: And the CC50 [5, 12]?
A: > 100 µM

Q: And the TGI ([5]; read-out: TGI)?
A: > 100 µM

Q: What about the GI50 ([5]; read-out: pGI50 (converted)) of the same molecule?
A: 100 µM

Q: What about the CC50 [5, 13] of the same molecule?
A: 100 µM

Q: And the TGI ([5]; read-out: pTGI (converted))?
A: 100 µM

Q: And the TGI [6]?
A: > 100 µM

Q: What about the GI50 ([6]; RXF 631, read-out: GI50) of the same molecule?
A: 100 µM

Q: And the CC50 [6, 14]?
A: > 100 µM

Q: What about the GI50 [6, 15] of the same molecule?
A: 100 µM

Q: And the CC50 [6, 16]?
A: 100 µM

Q: What about the GI50 ([7]; read-out: GI50) of the same molecule?
A: 87 µM

Q: And the CC50 [7]?
A: > 100 µM

Q: And the TGI ([7]; read-out: TGI)?
A: > 100 µM

Q: What about the GI50 ([7]; read-out: pGI50 (converted)) of the same molecule?
A: 87.1 µM

Q: What about the TGI ([7]; read-out: pTGI (converted)) of the same molecule?
A: 100 µM

Q: What about the GI50 ([8]; MKN-1, read-out: GI50) of the same molecule?
A: 93 µM

Q: What about the CC50 [8, 17] of the same molecule?
A: > 100 µM

Q: And the TGI ([8]; MKN-1, read-out: TGI)?
A: > 100 µM

Q: And the GI50 [8, 18]?
A: 93.3 µM

Q: And the CC50 [8, 19]?
A: 100 µM

Q: What about the TGI [8, 20] of the same molecule?
A: 100 µM

Q: And the GI50 ([9]; read-out: GI50)?
A: 12 µM

Q: What about the CC50 [9, 12] of the same molecule?
A: > 100 µM

Q: And the TGI ([9]; read-out: TGI)?
A: > 100 µM

Q: What about the GI50 ([9]; read-out: pGI50 (converted)) of the same molecule?
A: 11.7 µM

Q: What about the CC50 [9, 13] of the same molecule?
A: 100 µM

Q: What about the TGI ([9]; read-out: pTGI (converted)) of the same molecule?
A: 100 µM

Q: What about the GI50 ([10]; read-out: GI50) of the same molecule?
A: > 100 µM

Q: What about the CC50 [10, 12] of the same molecule?
A: > 100 µM

Q: What about the TGI ([10]; read-out: TGI) of the same molecule?
A: > 100 µM

Q: And the GI50 ([10]; read-out: pGI50 (converted))?
A: 100 µM

Q: What about the CC50 [10, 13] of the same molecule?
A: 100 µM

Q: And the TGI ([10]; read-out: pTGI (converted))?
A: 100 µM

Q: For CC(=O)O[C@H]1C[C@H]2OC[C@@]2(OC(C)=O)[C@H]2[C@H](OC(=O)c3ccccc3)[C@]3(O)C[C@H](O)C(C)=C([C@@H](O)[C@H](O)[C@]12C)C3(C)C [TAXUSPINE E], which IC50 [11] is on record?
A: 0.08 µg/mL (≈ 0.136 µM)

Q: And the GI50 ([1]; read-out: GI50)?
A: 45 µM

Q: And the CC50 [1, 12]?
A: > 100 µM

Q: What about the TGI ([1]; read-out: TGI) of the same molecule?
A: > 100 µM

Q: What about the GI50 ([1]; read-out: pGI50 (converted)) of the same molecule?
A: 44.7 µM

Q: What about the CC50 [1, 13] of the same molecule?
A: 100 µM

Q: And the TGI ([1]; read-out: pTGI (converted))?
A: 100 µM

Q: What about the GI50 ([2]; read-out: GI50) of the same molecule?
A: 50 µM

Q: What about the CC50 [2, 12] of the same molecule?
A: > 100 µM

Q: What about the TGI ([2]; read-out: TGI) of the same molecule?
A: > 100 µM

Q: What about the GI50 ([2]; read-out: pGI50 (converted)) of the same molecule?
A: 50.1 µM

Q: And the CC50 [2, 13]?
A: 100 µM

Q: And the TGI ([2]; read-out: pTGI (converted))?
A: 100 µM

Q: What about the GI50 ([3]; read-out: GI50) of the same molecule?
A: 23 µM

Q: What about the CC50 [3, 12] of the same molecule?
A: 100 µM

Q: And the TGI ([3]; read-out: TGI)?
A: 69 µM

Q: What about the GI50 ([3]; read-out: pGI50 (converted)) of the same molecule?
A: 22.9 µM

Q: And the CC50 [3, 13]?
A: 100 µM

Q: And the TGI ([3]; read-out: pTGI (converted))?
A: 69.2 µM

Q: What about the GI50 ([4]; read-out: GI50) of the same molecule?
A: 21 µM

Q: What about the CC50 [4, 12] of the same molecule?
A: > 100 µM

Q: What about the TGI ([4]; read-out: TGI) of the same molecule?
A: 99 µM

Q: What about the GI50 ([4]; read-out: pGI50 (converted)) of the same molecule?
A: 20.4 µM

Q: And the CC50 [4, 13]?
A: 100 µM

Q: And the TGI ([4]; read-out: pTGI (converted))?
A: 100 µM

Q: And the GI50 ([5]; read-out: GI50)?
A: 37 µM

Q: And the CC50 [5, 12]?
A: > 100 µM

Q: And the TGI ([5]; read-out: TGI)?
A: 100 µM

Q: And the GI50 ([5]; read-out: pGI50 (converted))?
A: 37.2 µM

Q: What about the CC50 [5, 13] of the same molecule?
A: 100 µM

Q: What about the TGI ([5]; read-out: pTGI (converted)) of the same molecule?
A: 100 µM

Q: And the TGI [6]?
A: > 100 µM

Q: And the GI50 ([6]; RXF 631, read-out: GI50)?
A: 25 µM

Q: And the CC50 [6, 14]?
A: 5100 µM

Q: And the GI50 [6, 15]?
A: 24.5 µM

Q: And the CC50 [6, 16]?
A: 100 µM

Q: And the GI50 ([7]; read-out: GI50)?
A: 28 µM

Q: And the CC50 [7]?
A: > 100 µM

Q: What about the TGI ([7]; read-out: TGI) of the same molecule?
A: > 100 µM

Q: And the GI50 ([7]; read-out: pGI50 (converted))?
A: 28.2 µM

Q: What about the TGI ([7]; read-out: pTGI (converted)) of the same molecule?
A: 100 µM

Q: What about the GI50 ([8]; MKN-1, read-out: GI50) of the same molecule?
A: 49 µM

Q: And the CC50 [8, 17]?
A: > 100 µM

Q: And the TGI ([8]; MKN-1, read-out: TGI)?
A: > 100 µM

Q: And the GI50 [8, 18]?
A: 49 µM

Q: And the CC50 [8, 19]?
A: 100 µM

Q: And the TGI [8, 20]?
A: 100 µM

Q: And the GI50 ([9]; read-out: GI50)?
A: 31 µM

Q: And the CC50 [9, 12]?
A: > 100 µM

Q: What about the TGI ([9]; read-out: TGI) of the same molecule?
A: > 100 µM

Q: What about the GI50 ([9]; read-out: pGI50 (converted)) of the same molecule?
A: 30.9 µM

Q: What about the CC50 [9, 13] of the same molecule?
A: 100 µM

Q: What about the TGI ([9]; read-out: pTGI (converted)) of the same molecule?
A: 100 µM

Q: And the GI50 ([10]; read-out: GI50)?
A: 27 µM

Q: And the CC50 [10, 12]?
A: > 100 µM

Q: And the TGI ([10]; read-out: TGI)?
A: > 100 µM

Q: What about the GI50 ([10]; read-out: pGI50 (converted)) of the same molecule?
A: 26.9 µM

Q: What about the CC50 [10, 13] of the same molecule?
A: 100 µM

Q: And the TGI ([10]; read-out: pTGI (converted))?
A: 100 µM
